The results in this text go back to publication PMC7191050 (Molecules and Cells, 2020).

Holding throughout (type): binding
Assay [1] deals with T1, Ca IleRS (isoleucyl-tRNA synthetase) (Candida albicans, UniProt Q59RI1).
T1 sequence (Q59RI1 1-856): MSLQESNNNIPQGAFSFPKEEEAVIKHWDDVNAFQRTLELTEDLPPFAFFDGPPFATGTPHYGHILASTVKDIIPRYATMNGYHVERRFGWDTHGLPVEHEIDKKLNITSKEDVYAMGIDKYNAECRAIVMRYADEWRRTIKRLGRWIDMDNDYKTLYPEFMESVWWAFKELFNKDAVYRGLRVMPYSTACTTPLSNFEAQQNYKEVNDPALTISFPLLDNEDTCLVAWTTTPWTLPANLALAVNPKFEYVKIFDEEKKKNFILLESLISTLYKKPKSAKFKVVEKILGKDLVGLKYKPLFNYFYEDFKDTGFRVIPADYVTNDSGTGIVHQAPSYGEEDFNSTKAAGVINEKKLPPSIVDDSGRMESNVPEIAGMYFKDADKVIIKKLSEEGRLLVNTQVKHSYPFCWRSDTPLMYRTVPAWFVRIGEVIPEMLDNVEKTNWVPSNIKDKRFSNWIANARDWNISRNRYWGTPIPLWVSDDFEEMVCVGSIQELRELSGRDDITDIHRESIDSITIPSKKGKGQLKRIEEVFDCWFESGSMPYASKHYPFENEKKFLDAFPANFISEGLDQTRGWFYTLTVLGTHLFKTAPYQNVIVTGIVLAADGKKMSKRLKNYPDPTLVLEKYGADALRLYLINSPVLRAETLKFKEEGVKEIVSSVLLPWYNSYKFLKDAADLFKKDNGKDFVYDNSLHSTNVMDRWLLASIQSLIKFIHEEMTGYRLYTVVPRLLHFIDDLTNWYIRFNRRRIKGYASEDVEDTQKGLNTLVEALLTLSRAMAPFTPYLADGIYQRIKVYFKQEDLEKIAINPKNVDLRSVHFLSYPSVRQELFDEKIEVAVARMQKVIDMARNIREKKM
As to the kind of experiment: X-ray crystal structure at […] Å.

Assay [2] has as its target T2, Ca IleRS (isoleucyl-tRNA synthetase) (Candida albicans, UniProt Q59RI1).
T2 sequence (Q59RI1 1-1088): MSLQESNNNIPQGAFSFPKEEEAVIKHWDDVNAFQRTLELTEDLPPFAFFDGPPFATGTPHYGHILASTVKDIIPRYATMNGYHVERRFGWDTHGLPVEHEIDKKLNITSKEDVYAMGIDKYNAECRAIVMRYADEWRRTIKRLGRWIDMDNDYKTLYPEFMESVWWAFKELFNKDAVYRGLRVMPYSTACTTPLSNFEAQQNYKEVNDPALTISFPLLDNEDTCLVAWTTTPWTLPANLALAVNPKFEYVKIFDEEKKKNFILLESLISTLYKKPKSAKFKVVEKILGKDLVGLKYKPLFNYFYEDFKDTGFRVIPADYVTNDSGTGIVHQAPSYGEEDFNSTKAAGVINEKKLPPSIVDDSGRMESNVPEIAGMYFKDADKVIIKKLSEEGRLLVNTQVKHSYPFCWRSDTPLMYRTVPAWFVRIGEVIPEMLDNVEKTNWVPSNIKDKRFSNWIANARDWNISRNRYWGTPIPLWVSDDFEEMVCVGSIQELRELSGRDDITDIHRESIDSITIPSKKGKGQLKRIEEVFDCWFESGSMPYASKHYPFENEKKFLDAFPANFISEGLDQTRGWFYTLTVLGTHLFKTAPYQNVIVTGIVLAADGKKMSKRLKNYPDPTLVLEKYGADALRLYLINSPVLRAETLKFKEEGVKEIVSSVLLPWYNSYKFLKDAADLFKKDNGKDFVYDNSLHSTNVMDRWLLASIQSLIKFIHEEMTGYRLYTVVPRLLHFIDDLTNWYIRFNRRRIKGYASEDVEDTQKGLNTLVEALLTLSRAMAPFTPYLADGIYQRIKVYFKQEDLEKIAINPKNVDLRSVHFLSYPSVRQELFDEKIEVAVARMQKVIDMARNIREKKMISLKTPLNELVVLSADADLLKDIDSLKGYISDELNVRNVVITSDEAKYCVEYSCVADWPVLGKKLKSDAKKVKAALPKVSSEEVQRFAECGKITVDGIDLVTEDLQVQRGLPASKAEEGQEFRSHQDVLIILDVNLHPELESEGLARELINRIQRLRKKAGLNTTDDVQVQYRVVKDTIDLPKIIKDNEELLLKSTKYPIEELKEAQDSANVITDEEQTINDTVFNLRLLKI
Nature of the assay: microscale thermophoresis. A general note: MST reads how a fluorescent partner responds to local heating, with and without ligand.

Assay [3] addresses T3, Ca IleRS mutant (isoleucyl-tRNA synthetase) (Candida albicans, UniProt Q59RI1, I601F/T599H).
T3 sequence (Q59RI1 1-1088 T599H/I601F): T2 sequence (Q59RI1 1-1088)
As to the kind of experiment: microscale thermophoresis.

One may read the Kd as a measure of binding affinity in units of concentration. A lower Kd goes with a tighter complex.

Consider `CC[C@H](C)[C@H](N)C(=O)OP(=O)(O)OC[C@H]1O[C@@H](n2cnc3c(N)ncnc32)[C@H](O)[C@@H]1O` [Ile-AMP], for which, in assay [1], the “X-ray crystal structure at 2.9 Å (ligand co-purified, none added)” value is given as “The crystal structure of Ca IleRS revealed clear electron density for Ile-AMP at the synthetic active site”.

As for `C/C(=C\C(=O)OCCCCCCCCC(=O)O)C[C@@H]1OC[C@H](C[C@@H]2O[C@H]2[C@@H](C)[C@H](C)O)[C@@H](O)[C@H]1O` [mupirocin], the Kd in assay [2] and in assay [3] was 103 to 111 µM each time.
